{"source": "patent EP1789452B1", "about": "“RELAXIN-CHIMERIC POLYPEPTIDES AND THEIR PREPARATION AND USE” (Janssen Pharmaceutica NV, priority 2004, dated 2006)", "key": {"LGR7": {"target": "T1, LGR7 (Homo sapiens, UniProt Q9HBX9)", "T1 construct": "Human LGR7 cDNA containing the complete coding region was PCR amplified from a human brain cDNA pool; expressed in transfected cells; host or cells: COS-7 (transient, live cells)", "T1 sequence (Q9HBX9 1-757)": "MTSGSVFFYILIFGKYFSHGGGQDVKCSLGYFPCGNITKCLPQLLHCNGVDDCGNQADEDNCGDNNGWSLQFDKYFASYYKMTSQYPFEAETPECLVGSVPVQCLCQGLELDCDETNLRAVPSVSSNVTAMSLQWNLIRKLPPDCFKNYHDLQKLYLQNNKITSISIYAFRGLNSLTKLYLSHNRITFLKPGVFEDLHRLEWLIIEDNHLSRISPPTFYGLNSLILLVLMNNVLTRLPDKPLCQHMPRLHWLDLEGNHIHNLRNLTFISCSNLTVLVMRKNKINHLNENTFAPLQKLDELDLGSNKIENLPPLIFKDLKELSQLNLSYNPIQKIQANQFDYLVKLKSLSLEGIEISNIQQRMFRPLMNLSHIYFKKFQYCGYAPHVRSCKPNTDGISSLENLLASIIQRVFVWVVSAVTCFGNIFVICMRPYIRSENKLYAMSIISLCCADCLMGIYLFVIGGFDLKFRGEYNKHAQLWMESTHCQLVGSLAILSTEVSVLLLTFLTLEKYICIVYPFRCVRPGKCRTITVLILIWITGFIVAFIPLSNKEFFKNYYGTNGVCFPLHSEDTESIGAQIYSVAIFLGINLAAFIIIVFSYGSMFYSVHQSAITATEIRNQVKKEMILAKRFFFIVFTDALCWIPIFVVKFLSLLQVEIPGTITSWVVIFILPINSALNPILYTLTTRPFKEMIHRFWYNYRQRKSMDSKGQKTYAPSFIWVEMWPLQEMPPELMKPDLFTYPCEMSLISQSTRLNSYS", "experiment": "Stimulation of β-galactosidase expression in SK-N-MC/β-gal cells", "type": "cell-based"}, "LGR8": {"target": "T2, LGR8 (Homo sapiens, UniProt Q8WXD0)", "T2 construct": "Human LGR8 cDNA containing the complete coding region was PCR amplified from a human testis cDNA pool; expressed in transfected cells", "T2 sequence (Q8WXD0 whole entry)": "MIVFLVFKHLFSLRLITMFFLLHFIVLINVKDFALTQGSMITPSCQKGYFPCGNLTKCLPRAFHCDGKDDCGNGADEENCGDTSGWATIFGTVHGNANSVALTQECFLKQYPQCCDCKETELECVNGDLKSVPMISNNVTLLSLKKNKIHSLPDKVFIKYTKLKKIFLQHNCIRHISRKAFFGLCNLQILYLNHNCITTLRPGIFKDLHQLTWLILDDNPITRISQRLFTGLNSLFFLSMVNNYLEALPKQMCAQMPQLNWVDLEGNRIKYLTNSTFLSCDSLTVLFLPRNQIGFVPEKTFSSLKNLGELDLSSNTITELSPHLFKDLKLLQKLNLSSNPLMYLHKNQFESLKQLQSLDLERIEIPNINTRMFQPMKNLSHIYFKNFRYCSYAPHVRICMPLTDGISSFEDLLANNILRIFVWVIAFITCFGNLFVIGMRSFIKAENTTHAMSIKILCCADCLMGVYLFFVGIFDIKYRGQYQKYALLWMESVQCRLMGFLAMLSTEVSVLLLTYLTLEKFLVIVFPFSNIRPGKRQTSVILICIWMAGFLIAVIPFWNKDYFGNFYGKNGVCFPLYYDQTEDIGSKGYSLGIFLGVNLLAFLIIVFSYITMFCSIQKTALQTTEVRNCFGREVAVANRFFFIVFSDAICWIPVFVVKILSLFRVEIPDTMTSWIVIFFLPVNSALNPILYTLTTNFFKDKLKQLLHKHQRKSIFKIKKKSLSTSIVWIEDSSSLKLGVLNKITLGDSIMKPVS", "experiment": "Stimulation of β-galactosidase expression in SK-N-MC/β-gal cells", "type": "cell-based", "conditions": "highest concentration tested 1 µM"}}, "data": [{"smiles": "CC[C@H](C)[C@H](NC(=O)[C@H](Cc1ccccc1)NC(=O)[C@H](CCC(=O)O)NC(=O)[C@H](CCCNC(=N)N)NC(=O)CNC(=O)[C@H](CS)NC(=O)[C@H](CC(C)C)NC(=O)[C@H](CCCNC(=N)N)NC(=O)[C@@H](NC(=O)CNC(=O)[C@H](Cc1ccc(O)cc1)NC(=O)[C@@H]1CCCN1C(=O)[C@H](C)NC(=O)[C@H](C)NC(=O)[C@@H](N)CCCNC(=N)N)C(C)C)C(=O)N[C@@H](CCCNC(=N)N)C(=O)N[C@@H](C)C(=O)N[C@H](C(=O)N[C@H](C(=O)N[C@@H](Cc1ccccc1)C(=O)N[C@H](C(=O)N[C@@H](CS)C(=O)NCC(=O)NCC(=O)N[C@@H](CO)C(=O)N[C@@H](CCCNC(=N)N)C(=O)N[C@@H](Cc1c[nH]c2ccccc12)C(=O)O)[C@@H](C)O)[C@@H](C)CC)C(C)C", "note": "[relaxin-3 B-chain]", "values": [{"measurement": "activation of LGR7 expressing cells", "setting": "LGR7", "value": "did not activate"}, {"measurement": "activity towards LGR8", "setting": "LGR8", "value": "did not activate"}]}]}
